Common to all, as to type: cell-based, human
Test [1] relates to DU145. Kind of test: Annexin V-FITC/propidium iodide flow cytometry. As for the experimental part:
(§1) Flow Cytometry: PC3 and DU145 cells co-transfected with the DEFB1 expression system were grown in 60-mm dishes and induced for 12, 24, and 48 hours with 10 μM Ponasterone A. Following each incubation period, the medium was collected from the plates (to retain any detached cells) and combined with PBS used to wash the plates. The remaining attached cells were harvested by trypsinization and combined with the detached cells and PBS. The cells were then pelleted at 4° C. (500×g) for 5 min, washed twice in PBS, and resuspended in 100 ul of 1× Annexin binding buffer (0.1 M Hepes/NaOH at pH 7.4, 1.4 M NaCl, 25 mM CaCl2) containing 5 μl of Annexin V-FITC and 5 μl of PI. The cells were incubated at RT for 15 min in the dark, then diluted with 400 μl of 1× Annexin binding buffer and analyzed by FACscan (Becton Dickinson, San Jose, Calif.). All reactions were performed three times.
(§2) Flow cytometry: PC3 and DU145 cells transfected with the hBD-1 expression system were grown in 60-mm dishes and induced for 12, 24, and 48 h with 10 μM Pon A. Following each incubation period, the medium was collected from the plates (to retain any detached cells) and combined with PBS used to wash the plates. The remaining attached cells were harvested by trypsinization and combined with the detached cells and PBS. The cells were then pelleted at 4° C. (500×g) for 5 min, washed twice in PBS, and resuspended in 100 μl, of 1× Annexin binding buffer (0.1 M Hepes/NaOH at pH 7.4, 1.4 M NaCl, 25 mM CaCl2) containing […] Annexin V-FITC and 5 μl of PI. The cells were incubated at RT for 15 min in the dark, then diluted with 400 μl of 1× Annexin binding buffer and analyzed by FACscan (Becton Dickinson, San Jose, Calif.). All reactions were performed three times.
Background: In flow cytometry, cells or beads pass a laser one at a time.

For a further test, the system named is PC3. Kind of test: Annexin V-FITC/propidium iodide flow cytometry. As for the experimental part:
as §1, §2

In test [2] the test system is DU145. Kind of test: Pan-caspase detection (FAM-VAD-FMK, confocal). As to conditions: DU145, 24 h DEFB1 (hBD-1) induction. As for the experimental part: Detection of caspase activity in the prostate cancer cell lines was performed using APO LOGIX™ Carboxyfluorescin Caspase detection kit (Cell Technology, Mountain View, Calif.). Active caspases were detected through the use of a FAM-VAD-FMK inhibitor that irreversibly binds to active caspases. Briefly, DU 145 and PC3 cells (1.5-3×10^5) containing the DEFB1 expression system were plated in 35 mm glass bottom microwell dishes (Matek, Ashland, Mass.) and treated for 24 hours with media only or with media containing PonA as previously described. Next, 10 μl of a 30× working dilution of carboxyfluorescein labeled peptide fluoromethyl ketone (FAM-VAD-FMK) was added to 300 μl of media and added to each 35 mm dish. Cells were then incubated for 1 hour at 37° C. under 5% CO2. […] The fluorescent signal was analyzed using a confocal microscope (Zeiss LSM 5 Pascal) and a 63×DIC oil lens with a Vario 2 RGB Laser Scanning Module.
Pan-Caspase Detection: Detection of caspase activity in the prostate cancer cell lines was performed using APO LOGIX™ Carboxyfluorescin Caspase detection kit (Cell Technology, Mountain View, Calif.). Active caspases were detected through the use of a FAM-VAD-FMK inhibitor that irreversibly binds to active caspases. […] The fluorescent signal was analyzed using a confocal microscope (Zeiss LSM 5 Pascal) and a 63×DIC oil lens with a Vario 2 RGB Laser Scanning Module. […]

The values below come from patent publication US8445444B2, “Compositions and methods for diagnosing, treating, and preventing prostate conditions” (Phigenix, Inc., priority 2007, dated 2013).

Entries after “also recorded” stand apart in the source; their conditions may differ.

In the case of “DEFB1: human beta defensin-1 expressed from the ecdysone inducible pIND/DEFB1 construct, induced with Ponasterone A (DHYNCVSSGGQCLYSACPIFTKIQGTCYRGKAKCCK; UniProt P60022 33-68, looked up)”, the “number of apoptotic cells (lower and upper right quadrants)” value is 12% with DU145 [1] (DU145, 12 h DEFB1 (hBD-1) induction); 34% with DU145 [1] (DU145, 24 h); 59% in the test with DU145 [1] (DU145, 48 h); 10% in the test with PC3 (PC3, 12 h DEFB1 (hBD-1) induction); 20% in the test with PC3 (PC3, 24 h); 44% in the test on PC3 (PC3, 48 h). Further, the caspase activity result was “revealed caspase activity; also recorded: green staining” in the test on DU145 [2] and “green staining” in the test with DU145 [2] (listed as hBD-1).
